According to patent publication US12275731B2, “Azaindole inhibitors of wild-type and mutant forms of LRRK2” (DANA-FARBER CANCER INSTITUTE, INC., priority 2018, dated 2025):

Key:
Assay in all cases: KinomeScan profiling
Assay type in all cases: binding
NEK11 = target: T1, NEK11 (Homo sapiens, UniProt Q8NG66); conditions: NEK11, 1 μM; read-out: % control
T1 sequence (Q8NG66 1-645): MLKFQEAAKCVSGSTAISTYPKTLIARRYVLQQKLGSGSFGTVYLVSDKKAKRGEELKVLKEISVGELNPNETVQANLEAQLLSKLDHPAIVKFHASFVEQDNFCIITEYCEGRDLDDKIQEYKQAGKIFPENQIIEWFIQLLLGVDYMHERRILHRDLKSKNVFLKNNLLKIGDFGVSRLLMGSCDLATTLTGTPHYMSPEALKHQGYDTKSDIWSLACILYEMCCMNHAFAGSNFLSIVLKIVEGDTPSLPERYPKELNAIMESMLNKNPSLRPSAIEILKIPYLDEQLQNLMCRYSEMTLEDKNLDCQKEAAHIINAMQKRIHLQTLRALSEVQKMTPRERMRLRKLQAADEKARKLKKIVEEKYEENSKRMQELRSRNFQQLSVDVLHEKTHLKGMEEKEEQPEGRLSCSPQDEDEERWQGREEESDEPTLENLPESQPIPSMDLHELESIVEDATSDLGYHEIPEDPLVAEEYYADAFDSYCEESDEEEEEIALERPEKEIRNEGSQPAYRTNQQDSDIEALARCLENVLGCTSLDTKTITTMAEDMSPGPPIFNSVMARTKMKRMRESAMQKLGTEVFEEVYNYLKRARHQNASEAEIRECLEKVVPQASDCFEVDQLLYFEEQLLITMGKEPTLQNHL
Outline: (§1)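 The panel spans 468 kinases, and each inventive compound was applied at 1 μM from DMSO. Lower % control means stronger binding; the activity cut-off is set at less than 35%.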

MARK2 = MARK2 (Homo sapiens, UniProt Q7KZI7); conditions: MARK2, 1 μM; read-out: % control
Sequence of MARK2 (Q7KZI7 whole entry): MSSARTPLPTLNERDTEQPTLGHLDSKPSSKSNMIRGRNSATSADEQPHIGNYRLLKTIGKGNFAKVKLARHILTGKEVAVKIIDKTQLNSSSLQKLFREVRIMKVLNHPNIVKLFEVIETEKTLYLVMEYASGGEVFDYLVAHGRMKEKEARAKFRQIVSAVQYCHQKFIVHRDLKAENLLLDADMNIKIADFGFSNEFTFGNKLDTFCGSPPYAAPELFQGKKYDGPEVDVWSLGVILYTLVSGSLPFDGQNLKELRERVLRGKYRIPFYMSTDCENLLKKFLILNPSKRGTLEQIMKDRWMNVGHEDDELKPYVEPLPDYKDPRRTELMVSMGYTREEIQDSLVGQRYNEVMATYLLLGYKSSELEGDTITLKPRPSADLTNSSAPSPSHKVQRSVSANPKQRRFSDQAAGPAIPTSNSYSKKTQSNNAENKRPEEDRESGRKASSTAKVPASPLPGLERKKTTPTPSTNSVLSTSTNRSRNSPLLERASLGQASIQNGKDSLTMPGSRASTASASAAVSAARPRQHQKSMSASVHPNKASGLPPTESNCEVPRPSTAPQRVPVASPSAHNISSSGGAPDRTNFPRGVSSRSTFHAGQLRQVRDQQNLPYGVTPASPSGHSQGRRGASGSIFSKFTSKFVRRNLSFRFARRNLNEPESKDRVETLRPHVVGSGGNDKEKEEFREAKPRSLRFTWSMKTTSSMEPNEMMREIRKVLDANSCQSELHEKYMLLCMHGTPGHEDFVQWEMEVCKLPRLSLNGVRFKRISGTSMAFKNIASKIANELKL
Outline: as §1

MEK3 = target: T2, MEK3 (Homo sapiens, UniProt P46734); conditions: MEK3, 1 μM; read-out: % control
T2 sequence (P46734 1-347): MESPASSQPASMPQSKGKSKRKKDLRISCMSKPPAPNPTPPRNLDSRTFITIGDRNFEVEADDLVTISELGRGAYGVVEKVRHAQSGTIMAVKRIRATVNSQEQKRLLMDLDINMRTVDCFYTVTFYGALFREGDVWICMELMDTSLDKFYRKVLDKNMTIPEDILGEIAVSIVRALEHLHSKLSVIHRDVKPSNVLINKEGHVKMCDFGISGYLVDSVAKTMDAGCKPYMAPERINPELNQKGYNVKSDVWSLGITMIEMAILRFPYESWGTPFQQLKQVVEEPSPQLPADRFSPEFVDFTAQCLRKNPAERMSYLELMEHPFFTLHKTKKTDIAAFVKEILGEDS
Outline: as §1

ASK2 = target: T3, ASK2 (Homo sapiens, UniProt O95382); conditions: ASK2, 1 μM; read-out: % control
T3 construct: purchased KinomeScan®
T3 sequence (O95382 1-1288): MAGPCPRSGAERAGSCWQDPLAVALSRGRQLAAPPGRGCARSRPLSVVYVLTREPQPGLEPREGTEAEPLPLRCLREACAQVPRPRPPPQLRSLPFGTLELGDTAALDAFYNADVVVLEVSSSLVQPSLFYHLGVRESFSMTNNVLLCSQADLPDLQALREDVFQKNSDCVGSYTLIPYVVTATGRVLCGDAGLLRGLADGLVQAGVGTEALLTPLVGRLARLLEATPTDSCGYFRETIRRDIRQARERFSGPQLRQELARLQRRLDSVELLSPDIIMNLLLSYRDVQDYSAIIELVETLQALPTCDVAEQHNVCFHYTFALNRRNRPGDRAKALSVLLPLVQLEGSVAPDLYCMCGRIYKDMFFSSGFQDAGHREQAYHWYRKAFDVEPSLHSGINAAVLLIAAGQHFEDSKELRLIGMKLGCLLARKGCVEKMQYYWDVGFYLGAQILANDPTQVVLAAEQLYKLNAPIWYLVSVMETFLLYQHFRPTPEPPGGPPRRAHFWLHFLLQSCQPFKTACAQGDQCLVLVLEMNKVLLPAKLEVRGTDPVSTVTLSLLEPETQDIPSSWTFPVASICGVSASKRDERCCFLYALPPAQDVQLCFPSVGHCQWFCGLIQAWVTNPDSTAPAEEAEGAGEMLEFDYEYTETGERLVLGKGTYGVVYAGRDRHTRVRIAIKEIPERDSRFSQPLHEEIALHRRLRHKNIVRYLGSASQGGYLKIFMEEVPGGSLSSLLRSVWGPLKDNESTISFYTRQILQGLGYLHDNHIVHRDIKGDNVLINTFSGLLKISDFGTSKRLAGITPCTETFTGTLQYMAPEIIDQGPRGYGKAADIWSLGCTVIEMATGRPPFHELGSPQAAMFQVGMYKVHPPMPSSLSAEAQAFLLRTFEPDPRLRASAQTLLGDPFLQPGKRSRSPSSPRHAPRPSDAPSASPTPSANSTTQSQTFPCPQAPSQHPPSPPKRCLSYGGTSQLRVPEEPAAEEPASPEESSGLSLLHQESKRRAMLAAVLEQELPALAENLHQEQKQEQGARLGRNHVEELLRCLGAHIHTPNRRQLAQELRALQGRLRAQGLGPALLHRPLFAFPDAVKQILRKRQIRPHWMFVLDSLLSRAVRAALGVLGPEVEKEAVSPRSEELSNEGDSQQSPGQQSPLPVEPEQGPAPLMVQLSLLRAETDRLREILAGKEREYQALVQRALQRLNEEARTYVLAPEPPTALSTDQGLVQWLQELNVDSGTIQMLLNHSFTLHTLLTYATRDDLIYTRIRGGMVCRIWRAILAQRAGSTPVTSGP
Outline: as §1

TIE1 = TIE1 (Homo sapiens, UniProt P35590); conditions: TIE1, 1 μM; read-out: % control
Sequence of TIE1 (P35590 22-1138): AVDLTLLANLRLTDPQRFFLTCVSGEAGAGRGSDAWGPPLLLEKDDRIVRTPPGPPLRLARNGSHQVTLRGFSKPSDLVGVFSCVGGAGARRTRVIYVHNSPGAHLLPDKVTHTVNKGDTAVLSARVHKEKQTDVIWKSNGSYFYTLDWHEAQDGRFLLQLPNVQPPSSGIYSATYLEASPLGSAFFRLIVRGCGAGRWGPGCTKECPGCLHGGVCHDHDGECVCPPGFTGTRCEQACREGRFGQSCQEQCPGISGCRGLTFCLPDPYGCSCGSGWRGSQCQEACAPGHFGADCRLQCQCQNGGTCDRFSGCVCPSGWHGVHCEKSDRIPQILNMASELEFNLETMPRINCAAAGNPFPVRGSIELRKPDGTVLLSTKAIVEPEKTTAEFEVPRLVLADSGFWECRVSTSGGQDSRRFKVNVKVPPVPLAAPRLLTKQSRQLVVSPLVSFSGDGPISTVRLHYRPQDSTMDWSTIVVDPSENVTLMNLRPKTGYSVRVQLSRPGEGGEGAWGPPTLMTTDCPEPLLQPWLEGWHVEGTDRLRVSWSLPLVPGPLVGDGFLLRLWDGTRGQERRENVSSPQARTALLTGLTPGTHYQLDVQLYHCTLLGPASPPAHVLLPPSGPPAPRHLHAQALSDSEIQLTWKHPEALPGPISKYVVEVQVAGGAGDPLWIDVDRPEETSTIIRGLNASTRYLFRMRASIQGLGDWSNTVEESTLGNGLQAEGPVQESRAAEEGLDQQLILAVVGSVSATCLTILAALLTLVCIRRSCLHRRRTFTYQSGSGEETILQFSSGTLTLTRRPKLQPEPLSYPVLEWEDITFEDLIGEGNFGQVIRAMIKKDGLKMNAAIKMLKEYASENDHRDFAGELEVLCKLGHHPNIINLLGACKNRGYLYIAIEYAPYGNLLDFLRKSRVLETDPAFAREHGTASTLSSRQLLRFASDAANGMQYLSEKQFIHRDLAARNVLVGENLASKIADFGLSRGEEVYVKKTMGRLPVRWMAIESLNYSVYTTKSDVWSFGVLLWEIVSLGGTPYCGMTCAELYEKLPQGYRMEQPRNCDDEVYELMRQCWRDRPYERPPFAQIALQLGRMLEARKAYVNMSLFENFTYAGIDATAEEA
Outline: as §1

Structure (SMILES): O=C(c1ccc(-c2cnc3[nH]cc(Cl)c3c2NC2CCCC2)cc1)N1CCC(N2CCOCC2)CC1 [Compound 101, (4-(3-chloro-4-(cyclopentylamino)-1H-pyrrolo[2,3-b]pyridin-5-yl)phenyl)(4-morpholinopiperidin-1-yl)methanone]
- remaining binding at 1 µM (NEK11): 100%
- remaining binding at 1 µM (MARK2): 68%
- remaining binding at 1 µM (MEK3): 33%
- remaining binding at 1 µM (ASK2): 100%
- remaining binding at 1 µM (TIE1): 92%

Structure (SMILES): CNc1c(-c2cnn([C@H]3CCN(C(C)=O)C[C@@H]3F)c2)cnc2[nH]cc(Cl)c12 [Compound 77, 1-((3S,4S)-4-(4-(3-chloro-4-(methylamino)-1H-pyrrolo[2,3-b]pyridin-5-yl)-1H-pyrazol-1-yl)-3-fluoropiperidin-1-yl)ethan-1-one]
- remaining binding at 1 µM (NEK11): 97%
- remaining binding at 1 µM (MARK2): 86%
- remaining binding at 1 µM (MEK3): 36%
- remaining binding at 1 µM (ASK2): 30%
- remaining binding at 1 µM (TIE1): 97%

Structure (SMILES): CNc1c(-c2ccc(C(=O)N3CCC(N4CCOCC4)CC3)cc2)cnc2[nH]cc(Cl)c12 [Compound 96, (4-(3-chloro-4-(methylamino)-1H-pyrrolo[2,3-b]pyridin-5-yl)phenyl)(4-morpholinopiperidin-1-yl)methanone]
- remaining binding at 1 µM (NEK11): 96%
- remaining binding at 1 µM (MARK2): 60%
- remaining binding at 1 µM (MEK3): 4.2%
- remaining binding at 1 µM (ASK2): 42%
- remaining binding at 1 µM (TIE1): 93%
